Measured values published in article PMC10397204, “Revealing protonation states and tracking substrate in serine hydroxymethyltransferase with room-temperature X-ray and neutron crystallography” (Communications Chemistry, 2023).

Assays:
[1] = biological target: T1, TthSHMT (Thermus thermophilus, UniProt Q5SI56); assay: joint room-temperature X-ray/neutron crystallography, crystal soak; assay type: binding; conditions: pH 5.5, 500 mM; D2O H/D exchange; labelled compound; noncovalent pre-Michaelis complex in peripheral site, protomer A, sulfate in substrate site
T1 construct: gene glyA; recombinant in E. coli BL21(DE3), codon-optimized glyA, N-terminal His6-tag with linker removed by TEV, starts at Ser3; homodimer, active site formed by residues of both protomers

[2] = biological target: T1, TthSHMT; assay: joint room-temperature X-ray/neutron crystallography; assay type: binding; conditions: pH 5.5; covalent; Schiff base with Lys226 (internal aldimine)

T1 sequence (Q5SI56 3-407): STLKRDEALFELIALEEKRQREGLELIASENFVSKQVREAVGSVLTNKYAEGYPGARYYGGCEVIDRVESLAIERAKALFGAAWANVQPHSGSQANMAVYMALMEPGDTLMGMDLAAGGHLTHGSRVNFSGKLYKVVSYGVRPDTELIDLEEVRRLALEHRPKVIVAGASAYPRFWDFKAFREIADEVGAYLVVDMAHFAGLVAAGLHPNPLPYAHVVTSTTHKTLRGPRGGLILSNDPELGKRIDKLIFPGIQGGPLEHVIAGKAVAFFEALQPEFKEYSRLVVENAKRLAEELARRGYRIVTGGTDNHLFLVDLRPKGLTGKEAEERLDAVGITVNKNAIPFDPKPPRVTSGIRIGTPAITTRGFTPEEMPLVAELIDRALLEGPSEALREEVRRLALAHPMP

| Structure (SMILES) | joint room-temperature X-ray/neutron crystallography, crystal soak [1] | joint room-temperature X-ray/neutron crystallography [2] |
| --- | --- | --- |
| N[C@@H](CO)C(=O)O [L-Ser-d7] | we observed L-Ser-d7 bound in a pocket on the periphery of the active site | – |
| Cc1ncc(COP(=O)(O)O)c(C=O)c1O [PLP] | – | In TthSHMT, PLP is covalently bound to Lys226 (Lys280 in hSHMT2) through a Schiff base |
